Patent US6737383B1, “Herbicidal oxadiazolidines” (priority 1999, dated 2004)

How the values were obtained:
[1] = system: bermuda-grass; experiment: Test D bermudagrass; format: in vivo, Cynodon dactylon; settings: Postemergence, 0 to 100 scale
[2] = system: Green foxtail; experiment: Test D green foxtail; format: in vivo; settings: Rate 250 g/ha; Postemergence; 0 to 100 scale
[3] = system: surinam grass; experiment: Test D surinam grass; format: in vivo, Brachiaria decumbens; settings: Postemergence, 0 to 100 scale
[4] = system: large crabgrass; experiment: Test D large crabgrass; format: in vivo, Digitaria sanguinalis; settings: Postemergence, 0 to 100 scale
[5] = system: Green foxtail; experiment: Test D green foxtail; format: in vivo; settings: Rate 250 g/ha; Postemergence; 0 to 100 scale; remark: listed apart in the source
[6] = system: purple nutsedge; experiment: Test D purple nutsedge; format: in vivo, Cyperus rotundus; settings: Postemergence, 0 to 100 scale
[7] = system: pitted morningglory; experiment: Test D pitted morningglory; format: in vivo, Ipomoea lacunosa; settings: Postemergence, 0 to 100 scale
[8] = Rate 16 g/ha, 0 no injury, 100 complete control
[9] = Rate 32 g/ha, 0 no injury, 100 complete control
[10] = Rate 64 g/ha, 0 no injury, 100 complete control
[11] = Rate 125 g/ha, 0 no injury, 100 complete control

Row | Structure (SMILES) | Plant response rating, Bermudagrass [1, 8] | Plant response rating, Bermudagrass [1, 9] | Plant response rating, Bermudagrass [1, 10] | Plant response rating, Bermudagrass [1, 11] | Plant response rating, Bermudagrass ([1]; Rate 250 g/ha) | Plant response rating, Green foxtail [2] | Plant response rating, Surinam grass [3, 8] | Plant response rating, Surinam grass [3, 9] | Surinam grass plant response rating [3, 10] | Surinam grass plant response rating [3, 11] | Plant response rating, Surinam grass ([3]; Rate 250 g/ha) | Plant response rating Large crabgrass [4, 8] | Plant response rating Large crabgrass [4, 9] | Plant response rating Large crabgrass [4, 10] | Plant response rating Large crabgrass [4, 11] | Plant response rating Large crabgrass ([4]; Rate 250 g/ha) | Plant response rating, Green foxtail [5] | Plant response rating, Purple nutsedge [6, 8] | Plant response rating, Purple nutsedge [6, 9] | Purple nutsedge plant response rating [6, 10] | also measured
1 | CC(C)N(C(=O)n1oc(=O)n(C2CC2)c1=O)c1ccccc1 [Compound 243] | 20 | 60 | 100 | 100 | 100 | 100 | 0 | 20 | 90 | 100 | 100 | 0 | 70 | 100 | 100 | 100 | 100 | 0 | 0 | 0 | Purple nutsedge plant response rating [6, 11]: 10; Plant response rating, Purple nutsedge ([6]; Rate 250 g/ha): 100; Plant response rating, P. morninglory [7, 8]: 0; Plant response rating, P. morninglory [7, 9]: 0; Plant response rating, P. morninglory [7, 10]: 0; Plant response rating, P. morninglory [7, 11]: 0; Plant response rating, P. morninglory ([7]; Rate 250 g/ha): 40
2 | COCC(C)n1c(=O)on(C(=O)N(c2ccc(F)cc2F)C(C)C)c1=O (stereo not drawn) [Compound 352] | 0 | 80 | 100 | 100 | 100 | 100 | 0 | 0 | 30 | 70 | 100 | 0 | 100 | 100 | 100 | 100 | 100 | 0 | 0 | 0 | Purple nutsedge plant response rating [6, 11]: 0; Plant response rating, Purple nutsedge ([6]; Rate 250 g/ha): 0; Plant response rating, P. morninglory [7, 8]: 0; Plant response rating, P. morninglory [7, 9]: 0; Plant response rating, P. morninglory [7, 10]: 0; Plant response rating, P. morninglory [7, 11]: 0; Plant response rating, P. morninglory ([7]; Rate 250 g/ha): 0
3 | CC(C)N(C(=O)n1oc(=O)n(C2(C)CC2)c1=O)c1ccccc1 [Compound 360] | 0 | 100 | 100 | 100 | 100 | 100 | 0 | 0 | 100 | 90 | 100 | 0 | 80 | 100 | 100 | 100 | 100 | 0 | 0 | 0 | Purple nutsedge plant response rating [6, 11]: 10; Plant response rating, Purple nutsedge ([6]; Rate 250 g/ha): 20; Plant response rating, P. morninglory [7, 8]: 0; Plant response rating, P. morninglory [7, 9]: 0; Plant response rating, P. morninglory [7, 10]: 0; Plant response rating, P. morninglory [7, 11]: 0; Plant response rating, P. morninglory ([7]; Rate 250 g/ha): 10
